Experimental data reported in PubChem BioAssay (NCI).
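The concentration for 50% growth inhibition is given as GI50. Definition used: TGI = concentration required for complete inhibition of growth.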

What was measured:
Assay in all cases: NCI-60 cell line screen, 384-well format
CAKI-1 renal = test system: CAKI-1 renal
HCT-15 colon = test system: HCT-15 colon
MALME-3M melanoma = test system: MALME-3M melanoma
MDA-MB-231 breast = test system: MDA-MB-231 breast
MDA-MB-435 melanoma = test system: MDA-MB-435 melanoma
MOLT-4 leukemia = test system: MOLT-4 leukemia
NCI-H460 NSCLC = test system: NCI-H460 NSCLC
NCI-H522 lung = test system: NCI-H522 lung
OVCAR-4 ovarian = test system: OVCAR-4 ovarian
RXF 393 renal = test system: RXF 393 renal
SK-MEL-2 melanoma = test system: SK-MEL-2 melanoma
U251 glioblastoma = test system: U251 glioblastoma
UACC-62 melanoma = test system: UACC-62 melanoma

Cc1cc(-c2nc(C(=O)Nc3cc4oc(N5CCOCC5)nc4nc3N3CC[C@@H](O)C3)co2)ccn1
GI50 (CAKI-1 renal): 8.01 µM | TGI (CAKI-1 renal): 38.3 µM | GI50 (HCT-15 colon): 20.2 µM | TGI (HCT-15 colon): > 100000 nM | GI50 (MALME-3M melanoma): 19.4 µM | TGI (MALME-3M melanoma): > 100000 nM | GI50 (MDA-MB-231 breast): 36.9 µM | TGI (MDA-MB-231 breast): > 100 µM | GI50 (MDA-MB-435 melanoma): 29.3 µM | TGI (MDA-MB-435 melanoma): > 100000 nM | GI50 (MOLT-4 leukemia): 13.2 µM | TGI (MOLT-4 leukemia): 26.6 µM | GI50 (NCI-H460 NSCLC): 29.8 µM | TGI (NCI-H460 NSCLC): > 100000 nM | GI50 (NCI-H522 lung): 4320 nM | TGI (NCI-H522 lung): 22.7 µM | GI50 (OVCAR-4 ovarian): 36.9 µM | TGI (OVCAR-4 ovarian): > 100 µM | GI50 (RXF 393 renal): 12 µM | TGI (RXF 393 renal): 64.1 µM | GI50 (SK-MEL-2 melanoma): 15.5 µM | TGI (SK-MEL-2 melanoma): 41.6 µM | GI50 (U251 glioblastoma): 32.7 µM | TGI (U251 glioblastoma): > 100 µM | GI50 (UACC-62 melanoma): 22.6 µM | TGI (UACC-62 melanoma): > 100000 nM

C[C@@H](Oc1cc(-n2cnc3ccc(CN4CCN(C)CC4)cc32)sc1C(N)=O)c1ccccc1C(F)(F)F
GI50 (CAKI-1 renal): 1.63 µM | TGI (CAKI-1 renal): 4.5 µM | GI50 (HCT-15 colon): 0.374 µM | TGI (HCT-15 colon): 1200 nM | GI50 (MALME-3M melanoma): 1.15 µM | TGI (MALME-3M melanoma): 2370 nM | GI50 (MDA-MB-231 breast): 0.679 µM | TGI (MDA-MB-231 breast): 10.6 µM | GI50 (MDA-MB-435 melanoma): 0.244 µM | TGI (MDA-MB-435 melanoma): 602 nM | GI50 (MOLT-4 leukemia): 0.193 µM | TGI (MOLT-4 leukemia): 0.342 µM | GI50 (NCI-H460 NSCLC): 0.32 µM | TGI (NCI-H460 NSCLC): 906 nM | GI50 (NCI-H522 lung): 206 nM | TGI (NCI-H522 lung): 0.445 µM | GI50 (OVCAR-4 ovarian): 1.81 µM | TGI (OVCAR-4 ovarian): 10.2 µM | GI50 (RXF 393 renal): 0.192 µM | TGI (RXF 393 renal): 0.565 µM | GI50 (SK-MEL-2 melanoma): 0.272 µM | TGI (SK-MEL-2 melanoma): 0.839 µM | GI50 (U251 glioblastoma): 0.689 µM | TGI (U251 glioblastoma): 5.08 µM | GI50 (UACC-62 melanoma): 0.613 µM | TGI (UACC-62 melanoma): 2100 nM
